Experimental findings from ChEMBL document CHEMBL4261595, “Discovery of 3-(4-sulfamoylnaphthyl)pyrazolo[1,5-a]pyrimidines as potent and selective ALK2 inhibitors” (Bioorg Med Chem Lett, 2018) are described below.

Data set [1] is described as follows: Permeability of the compound by PAMPA. In kind it is ADME. The note with it: read-out: permeability. A general note: PAMPA measures passive passage across an artificial lipid membrane.
The conditions of data set [2]: rat, microsomes.
The nature of a further data set: physchem. The note with it: aqueous, pH 7.4.
Data set [3] in a line: AUC (0 to infinity) in C57BL/6 mouse at 3 mg/kg, iv. The data set is classed as ADME, organism-based. Details: dose 3 mg/kg, time infinity, route intravenous. The settings on record: in vivo.
Data set [4] is described as follows: Cmax in C57BL/6 mouse at 3 mg/kg, po. The data set is classed as ADME, organism-based. Details: dose 3 mg/kg, route oral. The note with it: in vivo.
Data set [5] in a line: Half life in C57BL/6 mouse at 3 mg/kg, po. In kind it is ADME, organism-based. The note with it: in vivo.
Data set [6] is described as follows: Half life in C57BL/6 mouse at 3 mg/kg, iv. The data set is classed as ADME, organism-based. The settings on record: in vivo.
The nature of data set [7]: AUC (0 to infinity) in C57BL/6 mouse at 3 mg/kg, po. The data set is classed as ADME, organism-based. Details: dose 3 mg/kg, time infinity, route oral. The settings on record: in vivo.
The nature of data set [8]: Volume of distribution at steady state in C57BL/6 mouse at 3 mg/kg, iv. The data set is classed as ADME, organism-based. The note with it: in vivo, read-out: Vdss.
Data set [9] is described as follows: Clearance in C57BL/6 mouse plasma at 3 mg/kg, iv. In kind it is ADME, organism-based.
The nature of data set [10]: Oral bioavailability in C57BL/6 mouse at 3 mg/kg. The note with it: in vivo. The data set is classed as ADME, organism-based.

≈ marks a conversion by molar mass, not a printed value.

As a reminder, the solubility is the concentration that dissolves in the medium under given conditions. A lower solubility goes with a poorly soluble substance. `NS(=O)(=O)c1ccc(-c2cnn3cc(-c4ccc(C5CCNCC5)cc4)cnc23)c2ccccc12`: the Papp in data set [1] was found to be 78.6 ×10⁻⁶ cm/s. Moreover, the t1/2 in data set [2] is listed as over 30 min. The compound further returned a solubility in the data set “physchem” of under 1 µg/mL.
In data set [2], `CC(C)(CN1CCCCC1)Oc1ccc(-c2cnc3c(-c4ccc(S(N)(=O)=O)c5ccccc45)cnn3c2)cc1` displayed a t1/2 of 6.1 min. Besides, the solubility in “physchem” was under 1 µg/mL.
For the compound `NC1(c2ccc(-c3cnc4c(-c5ccc(S(N)(=O)=O)c6ccccc56)cnn4c3)cc2)CCC1`, the solubility in “physchem” is under 1 µg/mL.
In the case of `CN(C)CCOc1ccc(-c2cnc3c(-c4ccc(S(N)(=O)=O)c5ccccc45)cnn3c2)cn1`, the Papp in data set [1] was determined as 8.8 ×10⁻⁶ cm/s. In data set [2], this compound returned a t1/2 of 9.4 min. This compound gave a solubility in the data set “physchem” of under 1 µg/mL.
Turning to `NS(=O)(=O)c1ccc(-c2cnn3cc(-c4ccc(N5CCNCC5)nc4)cnc23)c2ccccc12`, the Papp in data set [1] was found to be 8.3 ×10⁻⁶ cm/s. The t1/2 in [2] is reported as over 30 min. In the data set “physchem”, this compound gave a solubility of 1.4 µg/mL (≈ 2.88 µM).
Turning to `NS(=O)(=O)c1ccc(-c2cnn3cc(-c4ccc(CN5CCCC5)cc4)cnc23)c2ccccc12`, the Papp in data set [1] is 467 ×10⁻⁶ cm/s. The t1/2 in [2] turned out to be 21.9 min. This compound also showed a solubility in “physchem” of 8 µg/mL (≈ 16.5 µM).
In the same order, the values of `CC(C)(N)c1ccc(-c2cnc3c(-c4ccc(S(N)(=O)=O)c5ccccc45)cnn3c2)cc1` are 9.4 ×10⁻⁶ cm/s, over 30 min and 10.6 µg/mL (≈ 23.2 µM).
As a reminder, the AUC(0-inf) is total exposure, with the tail of the curve extrapolated. A word on the Cmax: it is the highest concentration seen after dosing. The half-life is the time in which the quantity being followed falls by half. A lower half-life goes with fast loss. The clearance is the volume of plasma or blood freed of the substance per unit of time. Low values mean a low capacity for elimination, high ones a high capacity for elimination. A word on the bioavailability: it is the share of a dose that reaches the circulation, judged against a reference dose that is usually intravenous. Low values mean little systemic uptake, high ones much systemic uptake. Regarding `CC(c1ccc(-c2cnc3c(-c4ccc(S(N)(=O)=O)c5ccccc45)cnn3c2)cc1)N1CCCC1` (stereo not given), the AUC(0-inf) in [3] stood at 3220 ng·h/mL; in data set [7] it was 782 ng·h/mL. Also, in [2], the t1/2 amounted to 22.8 min. Moreover, the solubility in the data set “physchem” amounted to 7 µg/mL (≈ 14.1 µM). In [4], this compound came in with a Cmax of 67 ng/mL. Further, the figures for the half-life in data set [5] and in data set [6] were 258 min and 210 min, respectively. Besides, in [8], the Vd was 4.6 L/kg. The same compound yielded a clearance in data set [9] of 16 mL/min/kg. The same compound displayed a bioavailability in data set [10] of 24%.
For the compound `NS(=O)(=O)c1ccc(-c2cnn3cc(-c4ccc(OCCN5CCCC5)cc4)cnc23)c2ccccc12`, the Papp in [1] stood at 317 ×10⁻⁶ cm/s. Also, the t1/2 in data set [2] was over 30 min. In the data set “physchem”, this compound yielded a solubility of 33 µg/mL (≈ 64.2 µM).
As to `NS(=O)(=O)c1ccc(-c2cnn3cc(-c4ccc(OCCN5CCCCC5)nc4)cnc23)c2ccccc12`, in data set [1], the Papp stood at 365 ×10⁻⁶ cm/s. The compound further showed a t1/2 in data set [2] of 20.9 min. The compound also came in with a solubility in the data set “physchem” of under 1 µg/mL.
As to `CC(N)c1ccc(-c2cnc3c(-c4ccc(S(N)(=O)=O)c5ccccc45)cnn3c2)cc1` (stereo not given), in the data set “physchem”, the solubility turned out to be 7.6 µg/mL (≈ 17.1 µM).
